The values below are quoted from earlier work in patent publication US20110165115A1, “SYNERGISTIC ATTRACTANTS FOR PESTIFEROUS SOCIAL INSECTS” (STERLING INTERNATIONAL INC., priority 2010, published 2011).

This data set concerns V. vidua. To be noted: background; cited from earlier work.

For `CCCCC/C=C\C=C\C(=O)OCC` [ethyl (E,Z)-2,4-decadienoate], the attraction result is “attracted”.
